Molecules are shown by their SMILES.

Here are results for one compound from patent US20250049924A1, “Abuse-Deterrent Pharmaceutical Composition with Aversion Properties” (AARDVARK THERAPEUTICS INC., priority 2022, published 2025).

Data set [1] is described as follows: systemic (intravenous) administration of DA, NOAEL. The data set is classed as in vivo. To be noted: systemic administration (i.e., intravenous administration).
In data set [2] the test system is bitter taste receptors in the oral cavity, including the tongue. The data set is described as follows: volunteer snorting experiment with DA in saline (granules or neat powder). The data set is classed as in vivo, human. As for the experimental part: One brave co-inventor attempted to “snort” a formulation of DA in either a granule form having talc as an excipient as DA is provided in clinical trials (Aardvark Therapeutics, Inc phase 1 and 2 studies for obesity) for oral administration in a capsule designed to prevent DA material from exposure to bitter taste receptors in the oral cavity, including the tongue. In a first round of “dose escalation” of a saline having DA in granules starting around […] of DA (wherein a granule weighs about 0.1 mg including the talc based excipients) in the volume of liquid snorted, it took a dose of around 0.1 mg DA (10 granules). The three attempts were 1 granule, 5 granules and lastly 10 granules. […] This sensation peaked around 15-20 min, and lasted about an hour. Was certainly annoying and not pleasant.
In view of the results with a granule formulation of DA, the day before filing this patent application, the co-inventor volunteer tried the snorting experiment again, but this time, using neat DA that was a powder dissolved in saline. Just one “snort” was attempted of 1 mg of DA in saline. It should be noted that the completed clinical trials of DA used a dose of 200 mg of DA taken orally in a capsule that dissolves in the stomach, avoiding mouth exposure. The report from our volunteer indicated: “Just snorted 1.0 mg of ARD-101 [DA] API [active pharmaceutical ingredient] . . . OMG.
So terrible. […] Like with the granules, there is no immediate aversive sensation. Maybe around minute 7-8 after snorting dose, the bitterness became apparent, with peak effect starting around minute 10-15. […] Drinking water almost makes it worse!
It's been over 30 min since the snorting and the bitterness has hardly diminished. If I ate breakfast, I might have vomited already.
A later text read: “It's been almost 6 hours and I still taste it. Bleh.”

Another data set concerns rats. The data set is described as follows: animal toxicology studies, DA orally by gavage, behaviour. Particulars: oral gavage by less skilled technicians. In kind it is in vivo.
Data set [3] in a line: systemic exposure of DA after oral administration (completed clinical trials and preclinical studies). The source says:
This is in contrast to a controlled substance, such as an amphetamine, which is known to provide a bolus dose to the brain to provider a “high” experience for the drug abuser. This allows a drug abuser, snorting the disclosed formulation to experience a bolus dose of the controlled substance for a “high” while simultaneously, or shortly thereafter, experience a disgusting, revolting, vomit-inducing, sickening (but not life-threatening) massively unpleasant experience from the aversive agent, such as DA.
DB is commercially available but has not been developed for pharmaceutical use. However, DA has been used as an active pharmaceutical agent as a bitter receptor agonist, not as an aversive, in formulations that avoid oral cavity exposure.

Setting [4] is: DA granules in saline, around 0.1 mg DA (10 granules).
Where [5] appears, read: neat DA powder dissolved in saline, 1 mg, one snort.

With `CC(=O)[O-].CC[N+](CC)(CC(=O)Nc1c(C)cccc1C)Cc1ccccc1` [DA, Denatonium acetate], in data set [1], the “NOAEL (no adverse effect level)” value was “high”. Moreover, the “dose of DA that it took for an effect in dose escalation” value in data set [2] (DA granules (talc excipient) in saline, snorted, attempts of 1, 5 and 10 granules) is recorded as “about 0.1 mg”. For the same compound, in data set [2] (setting [4]), the duration of sensation result is “about an hour”; the nausea or vomiting entry is reported as “did not elicit nausea or vomiting”; the sensation after snorting entry is “extremely bitter taste in the back of my throat and posterior portion of my tongue”; the “time of peak of sensation” value lay within 15 to 20 min. Further, the “time to noticing the bitter taste” value in data set [2] (setting [4]) is at most 10 min. Besides, the “effect compared with the granules” value in data set [2] (neat DA 1 mg versus granules snorted before) was “significantly and measurably more disgusting”. The “deterrence of snorting, volunteer's judgement” value in data set [2] (neat DA powder dissolved in saline, 1 mg) was “measurable deterrent to snorting”. Moreover, in data set [2] (setting [5]), the sensation after snorting entry is “extreme bitterness in the back of the throat and the posterior tongue”; the “start of peak effect” value is 10 to 15 min; the “time after snorting at which bitterness became apparent” value lay in the range of 7 to 8 min; the “time after snorting at which it is still tasted” value was about 6 h. For the same compound, the “time since snorting at which bitterness has hardly diminished” value in data set [2] (setting [5]) is on record as “over 30 min”. Further, the “behavior of the animals on gavage” value with rats is “highly aversive and desperate behavior”. In addition, the “part of the dose administered found systemically” value in data set [3] (oral administration) is “less than 1%”. The “pharmacokinetics, distribution after oral exposure” value in data set [3] (oral exposure) is given as “substantially gut restricted”.
